Data reported in PubChem BioAssay AID328 (DTP/NCI, 2004).
Values joined by “and” are separate entries in the source; they are usually repeats but may differ in a detail not shown here. Equal values may be shown once. Toxic doses and inconclusive results are not listed.

System: BDF1 mice, P388 leukemia ip, median survival T/C
Experiment: NCI In Vivo Anticancer Drug Screen. Data for tumor model P388 Leukemia (intraperitoneal) in B6D2F1 (BDF1) mice
Conditions: endpoint: median survival time, higher = longer survival
In short: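 Vehicle-dosed animals serve as the reference; survival of compound-dosed, tumour-implanted mice is divided by it.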

## CN(Cc1cnc2nc(N)nc(N)c2n1)c1ccc(C(=O)N[C@@H](CCC(=O)O)C(=O)O)cc1
dose: 0.37 mg/kg/injection, schedule: Q01DX009 (ip), vehicle: sodium bicarbonate
  T/C: 172 % of control
dose: 0.38 mg/kg/injection, schedule: Q01DX009 (ip), vehicle: saline
  T/C: 150 % of control and 155 % of control
dose: 0.5 mg/kg/injection, schedule: Q01DX005 (ip), vehicle: saline with Tween-80
  T/C: 113 % of control
dose: 0.5 mg/kg/injection, schedule: Q01DX005 (ip), vehicle: saline
  T/C: 184 % of control
dose: 0.5 mg/kg/injection, schedule: Q01DX009 (ip), vehicle: saline with Tween-80
  T/C: 163 % of control
dose: 0.5 mg/kg/injection, schedule: Q01DX009 (ip), vehicle: sodium bicarbonate
  T/C: 176 % of control
dose: 0.5 mg/kg/injection, schedule: Q01DX010 (ip), vehicle: other
  T/C: 245 % of control
dose: 0.75 mg/kg/injection, schedule: Q01DX009 (ip), vehicle: saline
  T/C: 190 % of control and 195 % of control
dose: 0.75 mg/kg/injection, schedule: Q01DX009 (ip), vehicle: sodium bicarbonate
  T/C: 209 % of control
dose: 0.9 mg/kg/injection, schedule: Q01DX009 (ip), vehicle: sodium bicarbonate
  T/C: 171 % of control and 190 % of control and 203 % of control
dose: 1.0 mg/kg/injection, schedule: Q01DX005 (ip), vehicle: saline with Tween-80
  T/C: 104 % of control
dose: 1.0 mg/kg/injection, schedule: Q01DX005 (ip), vehicle: saline
  T/C: 194 % of control
dose: 1.0 mg/kg/injection, schedule: Q01DX009 (ip), vehicle: saline with Tween-80
  T/C: 181 % of control
dose: 1.0 mg/kg/injection, schedule: Q01DX009 (ip), vehicle: sodium bicarbonate
  T/C: 236 % of control and 150 % of control and 181 % of control
dose: 1.0 mg/kg/injection, schedule: Q01DX010 (ip), vehicle: other
  T/C: 300 % of control
dose: 1.3 mg/kg/injection, schedule: Q01DX009 (ip), vehicle: sodium bicarbonate
  T/C: 228 % of control and 179 % of control and 205 % of control
dose: 1.5 mg/kg/injection, schedule: Q01DX009 (ip), vehicle: saline
  T/C: 229 % of control and 222 % of control
dose: 2.0 mg/kg/injection, schedule: Q01DX009 (ip), vehicle: saline with Tween-80
  T/C: 222 % of control
dose: 2.25 mg/kg/injection, schedule: Q01DX009 (ip), vehicle: sodium bicarbonate
  T/C: 231 % of control
dose: 2.3 mg/kg/injection, schedule: Q01DX009 (ip), vehicle: sodium bicarbonate
  T/C: 227 % of control and 239 % of control and 263 % of control
dose: 3.0 mg/kg/injection, schedule: Q01DX009 (ip), vehicle: saline
  T/C: 231 % of control and 236 % of control
dose: 3.0 mg/kg/injection, schedule: Q01DX009 (ip), vehicle: sodium bicarbonate
  T/C: 95 % of control and 100 % of control
dose: 3.5 mg/kg/injection, schedule: Q01DX009 (ip), vehicle: sodium bicarbonate
  T/C: 241 % of control and 244 % of control and 104 % of control
dose: 8.64 mg/kg/injection, schedule: Q04DX003 (ip), vehicle: sodium bicarbonate
  T/C: 182 % of control
dose: 10.0 mg/kg/injection, schedule: Q04DX004 (ip), vehicle: sodium bicarbonate
  T/C: 243 % of control
dose: 14.4 mg/kg/injection, schedule: Q04DX003 (ip), vehicle: sodium bicarbonate
  T/C: 199 % of control
dose: 15.0 mg/kg/injection, schedule: Q04DX004 (ip), vehicle: sodium bicarbonate
  T/C: 250 % of control
dose: 20.0 mg/kg/injection, schedule: Q04DX003 (ip), vehicle: sodium bicarbonate
  T/C: 221 % of control
dose: 20.0 mg/kg/injection, schedule: Q04DX004 (ip), vehicle: sodium bicarbonate
  T/C: 248 % of control
dose: 24.0 mg/kg/injection, schedule: Q04DX003 (ip), vehicle: sodium bicarbonate
  T/C: 202 % of control
dose: 25.0 mg/kg/injection, schedule: Q04DX003 (ip), vehicle: sodium bicarbonate
  T/C: 292 % of control
dose: 25.0 mg/kg/injection, schedule: Q04DX004 (ip), vehicle: sodium bicarbonate
  T/C: 248 % of control
dose: 30.0 mg/kg/injection, schedule: Q04DX003 (ip), vehicle: sodium bicarbonate
  T/C: 238 % of control
dose: 40.0 mg/kg/injection, schedule: Q04DX003 (ip), vehicle: sodium bicarbonate
  T/C: 237 % of control

## CCCCCCCCCC(O)CCC (stereo not drawn)
dose: 100.0 mg/kg/injection, schedule: Q04DX003 (ip), vehicle: Klucel (hydroxypropylcellulose) (HPC)
  T/C: 95 % of control
dose: 200.0 mg/kg/injection, schedule: Q04DX003 (ip), vehicle: Klucel (hydroxypropylcellulose) (HPC)
  T/C: 95 % of control
dose: 400.0 mg/kg/injection, schedule: Q04DX003 (ip), vehicle: Klucel (hydroxypropylcellulose) (HPC)
  T/C: 95 % of control

## OCC1CC1c1ccccc1 (stereo not drawn)
dose: 50.0 mg/kg/injection, schedule: Q01DX009 (ip), vehicle: saline with Tween-80
  T/C: 101 % of control
dose: 100.0 mg/kg/injection, schedule: Q01DX009 (ip), vehicle: saline with Tween-80
  T/C: 102 % of control
dose: 200.0 mg/kg/injection, schedule: Q01DX009 (ip), vehicle: saline with Tween-80
  T/C: 109 % of control

## O=C(O)c1sccc1-c1cccc2ccccc12
dose: 50.0 mg/kg/injection, schedule: Q01DX001 (ip), vehicle: saline
  T/C: 104 % of control
dose: 100.0 mg/kg/injection, schedule: Q01DX001 (ip), vehicle: saline
  T/C: 100 % of control
dose: 200.0 mg/kg/injection, schedule: Q01DX001 (ip), vehicle: saline
  T/C: 95 % of control
